# Test results published in ChEMBL document CHEMBL5380871.
# Tests used:
# Complement factor D = Complement factor D (Homo sapiens, UniProt P00746); test: Binding affinity to factor D (unknown origin) assessed as inhibition constant
# [1] = biological target: T1, Complement C1r subcomponent (Homo sapiens, UniProt P00736); test: Binding affinity to C1R (unknown origin) assessed as inhibition constant
# T1 sequence (P00736 whole entry): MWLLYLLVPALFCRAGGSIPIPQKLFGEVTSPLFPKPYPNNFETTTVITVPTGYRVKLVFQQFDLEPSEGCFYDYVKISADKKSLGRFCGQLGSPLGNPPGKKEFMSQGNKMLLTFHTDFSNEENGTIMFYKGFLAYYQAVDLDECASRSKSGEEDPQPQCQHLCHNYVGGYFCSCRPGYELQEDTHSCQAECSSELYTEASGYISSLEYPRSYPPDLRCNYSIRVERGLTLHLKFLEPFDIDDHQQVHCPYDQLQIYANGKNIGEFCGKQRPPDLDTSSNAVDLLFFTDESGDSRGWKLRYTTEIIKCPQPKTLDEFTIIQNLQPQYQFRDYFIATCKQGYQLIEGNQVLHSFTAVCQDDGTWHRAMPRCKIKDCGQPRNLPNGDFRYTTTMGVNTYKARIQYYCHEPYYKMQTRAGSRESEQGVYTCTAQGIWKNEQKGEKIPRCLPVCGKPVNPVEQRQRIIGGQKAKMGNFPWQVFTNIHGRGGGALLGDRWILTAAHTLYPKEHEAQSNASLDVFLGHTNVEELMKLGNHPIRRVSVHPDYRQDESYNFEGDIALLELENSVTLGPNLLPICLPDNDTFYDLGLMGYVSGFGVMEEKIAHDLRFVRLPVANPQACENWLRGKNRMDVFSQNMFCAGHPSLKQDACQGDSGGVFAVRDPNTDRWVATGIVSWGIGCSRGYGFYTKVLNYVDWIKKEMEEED
# Trypsin = Trypsin (Homo sapiens, UniProt P07477+P07478+P35030); test: Binding affinity to trypsin (unknown origin) assessed as inhibition constant; format: protein assay
# [2] = biological target: T2, Complement C1s subcomponent (Homo sapiens, UniProt P09871); test: Binding affinity to human C1S assessed as inhibition constant
# T2 sequence (P09871 whole entry): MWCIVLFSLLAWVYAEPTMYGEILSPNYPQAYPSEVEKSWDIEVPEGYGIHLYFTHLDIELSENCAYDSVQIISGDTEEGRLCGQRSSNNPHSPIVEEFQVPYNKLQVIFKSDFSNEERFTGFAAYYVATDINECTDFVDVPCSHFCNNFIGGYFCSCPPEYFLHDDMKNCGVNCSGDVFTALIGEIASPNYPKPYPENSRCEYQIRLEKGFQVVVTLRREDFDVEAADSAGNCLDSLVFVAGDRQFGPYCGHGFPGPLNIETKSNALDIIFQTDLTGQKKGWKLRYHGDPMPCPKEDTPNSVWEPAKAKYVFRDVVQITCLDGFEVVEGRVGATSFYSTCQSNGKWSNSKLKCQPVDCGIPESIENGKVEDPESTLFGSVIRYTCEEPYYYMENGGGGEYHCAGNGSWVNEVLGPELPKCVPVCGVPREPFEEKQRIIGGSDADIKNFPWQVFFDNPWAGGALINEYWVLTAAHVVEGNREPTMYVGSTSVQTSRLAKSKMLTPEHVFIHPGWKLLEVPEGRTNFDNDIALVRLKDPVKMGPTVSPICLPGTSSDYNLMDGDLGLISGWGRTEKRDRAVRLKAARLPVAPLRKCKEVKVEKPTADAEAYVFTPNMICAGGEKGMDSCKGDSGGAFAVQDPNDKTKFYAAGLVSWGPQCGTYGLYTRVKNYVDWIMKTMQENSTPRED
# Prothrombin = Prothrombin (Homo sapiens, UniProt P00734); test: Binding affinity to thrombin (unknown origin) assessed as inhibition constant
# [3] = Inhibition of human recombinant kallikrein using Pro-Phe-Arg-AMC as substrate pretreated with compound followed by substrate addition incubated for 60 mins by multilabel plate reader method
# Chain of Complement factor D (P00746 whole entry): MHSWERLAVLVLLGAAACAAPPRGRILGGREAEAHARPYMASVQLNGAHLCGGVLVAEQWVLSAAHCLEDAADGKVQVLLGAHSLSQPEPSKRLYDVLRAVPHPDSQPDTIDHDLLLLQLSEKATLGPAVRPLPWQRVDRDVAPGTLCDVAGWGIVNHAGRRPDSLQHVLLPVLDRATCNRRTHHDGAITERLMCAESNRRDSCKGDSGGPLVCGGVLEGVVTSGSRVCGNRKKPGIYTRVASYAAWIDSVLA
SMILES,Ki (Complement factor D) [µM],Ki [1] [µM],Ki (Trypsin) [µM],Ki [2] [µM],Ki (Prothrombin) [µM],IC50 [3] [µM]
CCCc1c(-c2csc(-c3cc(C(=N)N)sc3SC)n2)cnn1-c1ccccn1,3.7,≥ 50,0.18,0.07,> 50,
Cc1cc([C@H]2CN(c3cc(F)c4c(N)nncc4c3)CCN2c2cccc(F)c2)no1,,,,,,> 30
